Holding throughout (conditions): human, ipsc-cm
A short description of data set [1]: (§1) Electrical activity assay on cell lines treated with a given drug. DMSO was used as a vehicle and a control, unblinded dofetilide was used as a control.
Data set [2] in a line: as §1. Set-up: APDc: unit not given here. The data set is classed as cell-based.
The nature of data set [3]: as §1. Type of data set: ADME, cell-based. Also noted: FPDc: unit not given here.
The nature of data set [4]: as §1. The source holds these as a separate data set.
A short description of data set [5]: as §1. Set-up: FPDc: unit not given here. The data set is classed as ADME, cell-based. The source holds these as a separate data set.
A short description of data set [6]: as §1. Type of data set: ADME, cell-based.
The mark [7] stands for this setting: 0.09507 µM, concentration (um) 0.0950736 uM.
Where [8] appears, read: 0.3004 µM, concentration (um) 0.300433 uM.
The mark [9] stands for this setting: 0.9494 µM, concentration (um) 0.949367 uM.
The mark [10] stands for this setting: 0.003169 µM, concentration (um) 0.00316912 uM.
[11] abbreviates: 0.01001 µM, concentration (um) 0.0100144 uM.
Setting [12] is: 0.03165 µM, concentration (um) 0.0316456 uM.
[13] abbreviates: 0.1 µM, concentration (um) 0.1 uM.
Setting [14] is: 10 µM, concentration (um) 10 uM.
Where [15] appears, read: 100 µM, concentration (um) 100 uM.
Setting [16] is: 0.001 µM, concentration (um) 0.001 uM.
Setting [17] is: 0.01 µM, concentration (um) 0.01 uM.

SMILES strings stand for the structures.

For `CN(C)CCCN1c2ccccc2Sc2ccc(Cl)cc21` [CHLORPROMAZINE], the FPD measurement in data set [1] (0.09507 µM) amounted to 53.9 FPDc; in data set [1] (0.3004 µM), 52.05 FPDc; in data set [1] (0.9494 µM), 50.49 FPDc; in data set [1] (3 µM), 44.91 FPDc; in data set [2] (setting [7]), 69.32 FPDc; in data set [2] (setting [8]), 63.65 FPDc. The FPD measurement is 55.94 FPDc in data set [2] (setting [9]); 58.51 FPDc in data set [2] (3 µM, concentration (um) 3 uM); “More Than Half The Wells Had A Quiescence Event Or Fpdc Readings Of 0” in data set [3] (3 µM, concentration (um) 3 uM). The FPDc was 53.9 in data set [1] (0.09507 µM); 52.05 in data set [1] (0.3004 µM); 50.49 in data set [1] (0.9494 µM); 44.91 in data set [1] (3 µM); 0.04224 in data set [3] (setting [7]); 0.04702 in data set [3] (setting [8]). In addition, the FPDc is 0.04411 in data set [3] (setting [9]) and “More Than Half The Wells Had A Quiescence Event Or Fpdc Readings Of 0” in data set [3] (3 µM, concentration (um) 3 uM). In addition, the APDc is on record as 69.32 in data set [2] (setting [7]); 63.65 in data set [2] (setting [8]); 55.94 in data set [2] (setting [9]); 58.51 in data set [2] (3 µM, concentration (um) 3 uM).

As for `COc1cc(N)c(Cl)cc1C(=O)NC1CCN(CCCOc2ccc(F)cc2)CC1OC` (centres undefined) [CISAPRIDE], the APDc in data set [2] (setting [10]) stood at 60.87; in data set [2] (setting [11]) it was 62.7; in data set [2] (setting [12]) it was 58.7; in data set [2] (setting [13]), 92.05. Besides, the FPD measurement in data set [2] (setting [10]) was 60.87 FPDc; in data set [2] (setting [11]), 62.7 FPDc; in data set [2] (setting [12]) it was 58.7 FPDc; in data set [2] (setting [13]), 92.05 FPDc; in data set [4] (0.003169 µM) it was 1 Values Out Of 1 Were Excluded Due To Quiescence Or 0 Fpdc; in data set [4] (0.01001 µM), 1 Values Out Of 1 Were Excluded Due To Quiescence Or 0 Fpdc. Also, the FPD measurement in data set [4] (0.03165 µM) and in data set [4] (0.1 µM) was 1 Values Out Of 1 Were Excluded Due To Quiescence Or 0 Fpdc each time. Besides, the FPDc in data set [4] (0.003169 µM) is 1 Values Out Of 1 Were Excluded Due To Quiescence Or 0 Fpdc; in data set [4] (0.01001 µM), 1 Values Out Of 1 Were Excluded Due To Quiescence Or 0 Fpdc; in data set [4] (0.03165 µM), 1 Values Out Of 1 Were Excluded Due To Quiescence Or 0 Fpdc; in data set [4] (0.1 µM), 1 Values Out Of 1 Were Excluded Due To Quiescence Or 0 Fpdc; in data set [3] (setting [10]), 0.04125; in data set [3] (setting [11]), 0.03941. Further, the values for the FPDc in data set [3] (setting [12]) and in data set [3] (setting [13]) were 0.04671 and 0.04762, respectively.

As to `CC[C@H]1OC(=O)[C@H](C)[C@@H](O[C@H]2C[C@@](C)(OC)[C@@H](O)[C@H](C)O2)[C@H](C)[C@@H](O[C@@H]2O[C@H](C)C[C@H](N(C)C)[C@H]2O)[C@](C)(OC)C[C@@H](C)C(=O)[C@H](C)[C@@H](O)[C@]1(C)O` [CLARITHROMYCIN], the APDc is given as 48.18 in data set [2] (setting [13]); 53.12 in data set [2] (1 µM, concentration (um) 1 uM); 61.24 in data set [2] (setting [14]); 79.49 in data set [2] (setting [15]). For the same compound, the FPD measurement in data set [2] (setting [13]) was 48.18 FPDc; in data set [2] (1 µM, concentration (um) 1 uM) it was 53.12 FPDc; in data set [2] (setting [14]) it was 61.24 FPDc; in data set [2] (setting [15]), 79.49 FPDc. Besides, the FPDc in data set [3] (setting [13]) amounted to 0.03502; in data set [3] (1 µM, concentration (um) 1 uM), 0.03611; in data set [3] (setting [14]), 0.04288; in data set [3] (setting [15]) it was 0.03271.

As to `CCOC(=O)N1CCC(=C2c3ccc(Cl)cc3CCc3cccnc32)CC1` [LORATADINE], the FPD measurement in data set [1] (0.0009507 µM) is reported as 54.17 FPDc; in data set [1] (0.003004 µM), 54.08 FPDc; in data set [1] (0.009494 µM), 55.38 FPDc; in data set [1] (0.03 µM), 55.57 FPDc; in data set [4] (0.0009507 µM), 1 Values Out Of 1 Were Excluded Due To Quiescence Or 0 Fpdc; in data set [4] (0.003004 µM), 1 Values Out Of 1 Were Excluded Due To Quiescence Or 0 Fpdc. The FPD measurement in data set [4] (0.009494 µM) and in data set [4] (0.03 µM) was 1 Values Out Of 1 Were Excluded Due To Quiescence Or 0 Fpdc each time. For the same compound, the FPDc is recorded as 54.17 in data set [1] (0.0009507 µM); 54.08 in data set [1] (0.003004 µM); 55.38 in data set [1] (0.009494 µM); 55.57 in data set [1] (0.03 µM); 1 Values Out Of 1 Were Excluded Due To Quiescence Or 0 Fpdc in data set [4] (0.0009507 µM); 1 Values Out Of 1 Were Excluded Due To Quiescence Or 0 Fpdc in data set [4] (0.003004 µM). Further, the FPDc in data set [4] (0.009494 µM) is listed as 1 Values Out Of 1 Were Excluded Due To Quiescence Or 0 Fpdc; in data set [4] (0.03 µM), 1 Values Out Of 1 Were Excluded Due To Quiescence Or 0 Fpdc; in data set [3] (0.0009507 µM, concentration (um) 0.000950736 uM) it was 0.02441; in data set [3] (0.003004 µM, concentration (um) 0.00300433 uM), 0.02167; in data set [3] (0.009494 µM, concentration (um) 0.00949367 uM) it was 0.02089; in data set [3] (0.03 µM, concentration (um) 0.03 uM), 0.02123.

`Cc1nc2n(c(=O)c1CCN1CCC(c3noc4cc(F)ccc34)CC1)CCCC2` [RISPERIDONE]: the FPD measurement in data set [1] (0.003169 µM) is given as 55.22 FPDc; in data set [1] (0.01001 µM) it was 55.61 FPDc; in data set [1] (0.03165 µM), 57.01 FPDc; in data set [1] (0.1 µM), 65.06 FPDc; in data set [5] (setting [10]), 5 Values Out Of 5 Were Excluded Due To Quiescence Or 0 Apdc; in data set [5] (setting [11]), 5 Values Out Of 5 Were Excluded Due To Quiescence Or 0 Apdc. The FPD measurement in data set [5] (setting [12]) is 5 Values Out Of 5 Were Excluded Due To Quiescence Or 0 Apdc; in data set [5] (setting [13]) it was 5 Values Out Of 5 Were Excluded Due To Quiescence Or 0 Apdc; in data set [4] (0.003169 µM) it was 1 Values Out Of 1 Were Excluded Due To Quiescence Or 0 Fpdc; in data set [4] (0.01001 µM), 1 Values Out Of 1 Were Excluded Due To Quiescence Or 0 Fpdc; in data set [4] (0.03165 µM), 1 Values Out Of 1 Were Excluded Due To Quiescence Or 0 Fpdc; in data set [4] (0.1 µM) it was 1 Values Out Of 1 Were Excluded Due To Quiescence Or 0 Fpdc. The FPDc in data set [1] (0.003169 µM) is listed as 55.22; in data set [1] (0.01001 µM), 55.61; in data set [1] (0.03165 µM) it was 57.01; in data set [1] (0.1 µM) it was 65.06; in data set [5] (setting [10]), 54.79; in data set [5] (setting [11]), 49.58. Besides, the FPDc in data set [5] (setting [12]) is listed as 47.1; in data set [5] (setting [13]), 61.9; in data set [4] (0.003169 µM), 1 Values Out Of 1 Were Excluded Due To Quiescence Or 0 Fpdc; in data set [4] (0.01001 µM), 1 Values Out Of 1 Were Excluded Due To Quiescence Or 0 Fpdc; in data set [4] (0.03165 µM), 1 Values Out Of 1 Were Excluded Due To Quiescence Or 0 Fpdc; in data set [4] (0.1 µM) it was 1 Values Out Of 1 Were Excluded Due To Quiescence Or 0 Fpdc. In addition, the FPDc was found to be 0.03911 in data set [3] (setting [10]), 0.03923 in data set [3] (setting [11]), 0.03847 in data set [3] (setting [12]) and 0.03663 in data set [3] (setting [13]).

As to `COc1ccc(CCN(C)CCCC(C#N)(c2ccc(OC)c(OC)c2)C(C)C)cc1OC` (centres undefined) [VERAPAMIL], the FPD measurement in data set [6] (setting [16]) is 52.61 FPDc; in data set [6] (setting [17]) it was 58.45 FPDc; in data set [5] (setting [16]), 5 Values Out Of 5 Were Excluded Due To Quiescence Or 0 Apdc; in data set [5] (setting [17]) it was 5 Values Out Of 5 Were Excluded Due To Quiescence Or 0 Apdc; in data set [5] (setting [13]), 5 Values Out Of 5 Were Excluded Due To Quiescence Or 0 Apdc; in data set [5] (1 µM, concentration (um) 1 uM), 5 Values Out Of 5 Were Excluded Due To Quiescence Or 0 Apdc. Also, the FPD measurement in data set [4] (0.001 µM) was 1 Values Out Of 1 Were Excluded Due To Quiescence Or 0 Fpdc; in data set [4] (0.01 µM), 1 Values Out Of 1 Were Excluded Due To Quiescence Or 0 Fpdc; in data set [4] (0.1 µM), 1 Values Out Of 1 Were Excluded Due To Quiescence Or 0 Fpdc; in data set [4] (1 µM), 1 Values Out Of 1 Were Excluded Due To Quiescence Or 0 Fpdc; in data set [3] (setting [13]) it was “More Than Half The Wells Had A Quiescence Event Or Fpdc Readings Of 0”; in data set [3] (1 µM, concentration (um) 1 uM) it was “More Than Half The Wells Had A Quiescence Event Or Fpdc Readings Of 0”. For the same compound, the FPDc is listed as 6 Values Out Of 6 Were Excluded Due To Quiescence Or 0 Fpdc in data set [6] (setting [16]); 6 Values Out Of 6 Were Excluded Due To Quiescence Or 0 Fpdc in data set [6] (setting [17]); 6 Values Out Of 6 Were Excluded Due To Quiescence Or 0 Fpdc in data set [6] (setting [13]); 6 Values Out Of 6 Were Excluded Due To Quiescence Or 0 Fpdc in data set [6] (1 µM, concentration (um) 1 uM); 48.96 in data set [5] (setting [16]); 54.23 in data set [5] (setting [17]). The FPDc was 56.48 in data set [5] (setting [13]); 50.52 in data set [5] (1 µM, concentration (um) 1 uM); 1 Values Out Of 1 Were Excluded Due To Quiescence Or 0 Fpdc in data set [4] (0.001 µM); 1 Values Out Of 1 Were Excluded Due To Quiescence Or 0 Fpdc in data set [4] (0.01 µM); 1 Values Out Of 1 Were Excluded Due To Quiescence Or 0 Fpdc in data set [4] (0.1 µM); 1 Values Out Of 1 Were Excluded Due To Quiescence Or 0 Fpdc in data set [4] (1 µM). Besides, the FPDc in data set [3] (setting [16]) is given as 0.02679; in data set [3] (setting [17]), 0.03865; in data set [3] (setting [13]), “More Than Half The Wells Had A Quiescence Event Or Fpdc Readings Of 0”; in data set [3] (1 µM, concentration (um) 1 uM) it was “More Than Half The Wells Had A Quiescence Event Or Fpdc Readings Of 0”.

The record behind these values is ChEMBL document CHEMBL4295262, “Evaluation of the utility of stem-cell derived cardiomyocytes for drug proarrhythmic potential” (2019).
